In EPA's ToxValDB 9.5:
≈ marks a conversion by molar mass, not a printed value. Where “and” joins values, the source holds several entries; their conditions need not be identical. Equal entries are not always repeated. Values belong to the compound of their own block, whether it stands above or below them.

Key:
[1] = system: Canidae; conditions: oral, diet, M/F, Dog Other
[2] = system: Mus musculus; conditions: for LC50 / LD50: acute; for LD50: injection
[3] = system: Oryctolagus sp.; conditions: for LD50: dermal; for NOAEL: duration: 13 days, gavage
[4] = system: Rattus norvegicus; conditions: for LD50 / LC50: acute
[5] = system: Rattus norvegicus; conditions: for LEL: uterotrophic, Active; for LOEL / NOEL: Hershberger
[6] = system: Rattus norvegicus; conditions: developmental; oral; gavage; M; Sprague-Dawley; generation: F1; F1: Testosterone (Testes)
[7] = chronic, duration: 1 years, decreased prostate weight + Increased RBC Heinz bodies
[8] = subchronic, duration: 90 days, sedation and tonoclonic spasms reduced food intake and body weight hematological effects
[9] = duration: 3 days, injection, subcutaneous
[10] = chronic, duration: 104 weeks, oral, diet, CDA
[11] = subchronic, duration: 90 days, oral, gavage, CDA Sprague-Dawley
[12] = duration: 5 days, oral, gavage, Sprague-Dawley, active + Androgenic + androgenic + advanced age of PPS, histopathology effects on reproductive tissues
[13] = duration: 10 days, injection, subcutaneous, Wistar, active + Androgenic + androgenic
[14] = duration: 10 days, oral, gavage, Sprague-Dawley, active + Antiandrogenic + anti-androgenic
[15] = chronic, duration: 2 years, liver toxicity

Compound: CC(C)NC(=O)N1CC(=O)N(c2cc(Cl)cc(Cl)c2)C1=O
LEL [1, 7]: 15 mg/kg-day | NOEL [1, 7]: 4.2 mg/kg-day

Compound: C[N+]1(C)CCCCC1.[Cl-] [1,1-Dimethylpiperidinium chloride]
LEL [1, 8]: 75 mg/kg-day | NOEL [1, 8]: 25 mg/kg-day

Compound: C=C(C)C(=O)OCCN(C)C [2-(Dimethylamino)ethyl methacrylate]
LC50 ([2]; inhalation): 1.8 µg/mL (≈ 11.4 µM) | LD50 ([2]; intraperitoneal): 25 mg/kg | LD50 ([3]; acute): > 3000 mg/kg | LD50 ([4]; dermal, Sprague-Dawley): > 2000 mg/kg | LC50 ([4]; inhalation): 0.62 µg/mL (≈ 3.94 µM) | LD50 ([4]; oral, gavage, Crj:CD): > 2000 mg/kg | NOAEL ([4]; reproduction developmental, duration: 41 days, oral, gavage, Crj:CD, generation: F0): 200 mg/kg-day | NOAEL ([4]; short-term, duration: 3 weeks, inhalation): 643 mg/m3 | NOAEL ([4]; subchronic, duration: 41 days, oral, gavage, Crj:CD): 200 mg/kg-day

Compound: Cc1cc(C)cc(O)c1 [3,5-Dimethylphenol]
LC50 ([2]; oral): 477 mg/kg | LC50 ([3]; acute, oral): 1310 mg/kg | LC50 ([4]; oral): 608 mg/kg

Compound: CCC(C)(C)c1ccc(O)cc1 [4-(2-Methylbutan-2-yl)phenol]
LEL [5, 9]: 200 mg/kg-day and 202 mg/kg-day

Compound: CC(C)(C)C1CCC(O)CC1 (configuration not stated) [4-tert-Butylcyclohexanol]
LD50 ([2]; Intraperitoneal, CF1): ≥ 50 mg/kg and ≤ 100 mg/kg | LD50 ([3]; acute): > 5000 mg/kg | LD50 ([4]; oral): 4200 mg/kg | LOAEL ([4]; short-term, duration: 28 days, oral, gavage, Wistar): 150 mg/kg-day

Compound: CC1(C)NC(=O)NC1=O [5,5-Dimethylhydantoin]
NOAEL ([2]; short-term, duration: 28 days, oral, diet, F, CD1): 50000 ppm | LOAEL ([2]; subchronic, duration: 13 weeks, oral, diet, CD1): 9850 mg/kg-day | LD50 ([3]; acute, New Zealand): > 20000 mg/kg | LD50 ([3]; acute, occlusive, New Zealand): > 3000 mg/kg | NOAEL ([3]; developmental, oral, New Zealand): 100 mg/kg-day | NOAEL ([3]; reproduction developmental, oral, F, New Zealand): 500 mg/kg-day | LC50 ([4]; inhalation): > 14.7 µg/mL | LD50 ([4]; oral, gavage, Sprague-Dawley): > 5000 mg/kg | NOAEL ([4]; chronic, duration: 24 months, oral, diet, Crl:CDABR): > 1000 mg/kg-day | LOAEL [4, 10]: > 1000 mg/kg-day | NOAEL [4, 10]: 1000 mg/kg-day | NOAEL ([4]; developmental, duration: 14 days, oral, gavage, Sprague-Dawley COBS CD): ≤ 2000 mg/kg-day | NOAEL ([4]; developmental, oral, gavage, Crl:CD(SD) BR): 250 mg/kg-day | NOAEL ([4]; reproduction developmental, duration: 10 weeks, oral, diet, CD, generation: F0): 20000 ppm | NOAEL ([4]; reproduction developmental, duration: 10 weeks, oral, diet, CD, generation: F1): 20000 ppm | NOAEL ([4]; reproduction developmental, oral, gavage, Crl:CD(SD) BR, generation: F0): 1000 mg/kg-day | NOAEL ([4]; reproduction developmental, oral, gavage, F, Crl:CD(SD) BR): 1000 mg/kg-day | NOAEL ([4]; subchronic, duration: 13 weeks, oral, gavage, Sprague-Dawley (CRl: CDBR)): 1000 mg/kg-day | LOAEL [4, 11]: 5000 mg/kg-day | NOAEL [4, 11]: 2000 mg/kg-day

Compound: C=C[C@@]12CCc3cc(O)ccc3[C@H]1CC[C@@]1(C)[C@H]2CC[C@@H]1O [8beta-Vinylestra-1,3,5(10)-triene-3,17beta-ol]
LOEL ([5]; duration: 12 days, injection, subcutaneous, Wistar, active + Androgenic + androgenic): 100 mg/kg-day

Compound: C[C@]12CCC(=O)C=C1CC[C@@H]1[C@@H]2CC[C@@]2(C)[C@H]1CC[C@]2(C)O [17-Methyltestosterone]
LOEL [5, 12]: 80 mg/kg-day and 100 mg/kg-day | NOEL [5, 12]: 20 mg/kg-day | LOEL ([5]; duration: 7 days, injection, subcutaneous, Sprague-Dawley, androgenic): 0.16 mg/kg-day | LEL [5, 9]: 10 mg/kg-day | LEL ([5]; duration: 4 days, injection, subcutaneous): 0.5 mg/kg-day | LEL ([5]; duration: 14 days, oral): 3 mg

Compound: CC[C@@H](C(C)C)[C@@H](O)[C@H](O)[C@@H](C)[C@H]1CC[C@H]2[C@@H]3COC(=O)[C@H]4C[C@H](O)[C@H](O)C[C@]4(C)[C@H]3CC[C@]12C [28-Homobrassinolide]
LOEL [5, 13]: 4 mg/kg-day | NOEL [5, 13]: 0.4 mg/kg-day

LEL [5, 9]: 0.00016 mg/day
Compound: CC/C(=C(\c1ccc(O)cc1)c1ccc(OCCN(C)C)cc1)c1ccccc1 [(Z)-4-Hydroxytamoxifen]

LEL [5, 9]: 1 mg/kg-day
Compound: c1ccc2cc3c(ccc4ccccc43)cc2c1 [Benz(a)anthracene]

Compound: CC(C)CCCCCCOC(=O)c1ccccc1C(=O)OCCCCCCC(C)C [Diisononyl phthalate]
LOEL [5, 14]: 500 mg/kg-day | NOEL [5, 14]: 100 mg/kg-day | NOEL [6]: 750 mg/kg-day

Compound: CN(C)C(=O)C(c1ccccc1)c1ccccc1 [Diphenamid]
LEL [1, 15]: 10 mg/kg-day | NOEL [1, 15]: 3 mg/kg-day
